Where no end group is shown, it is not given here. [ ]: non-standard residue; d: D form.
Tests used:
[1] = Pharmacokinetic study, plasma concentration by LC-MS/MS; assay type: in vivo, male Sprague Dawley rat
Procedure: A pharmacokinetic study of all-D-TTNYT (SEQ ID NO:2) (RAP-103) following intravenous and oral administration was conducted at a target dose level of 1 mg/kg in the male Sprague Dawley rat. The concentration of RAP-103 in each plasma and brain sample was measured using a suitable LC-MS/MS assay. The assay used was a research grade assay (RGA-1) which was established by assessing the accuracy, precision and the linearity of the method. Plasma concentrations generated were used to evaluate the pharmacokinetic parameters of all-D-TTNYT (SEQ ID NO:2) (RAP-103).
The dose formulation was administered intravenously to some animals as a slow bolus over ca 30 s via the tail vein and to a different group of animals orally via gastric gavage at a target dose volume of 1 mL/kg, to achieve a target dose level of 1 mg/kg. The dose volume administered was calculated according to the bodyweight of the animal on the day of dosing. The weight of administered dose was recorded. […] Results expressed as ng/mL

[2] = 6.0 mg daily intranasal
Procedure: Their neurological examination confirmed increased deep tendon reflexes, spasticity of the lower limbs and pyramidal weakness of the legs. Therapy, consisting of 6.0 mg of Peptide T daily, was self-administered via 4 metered intranasal sprays, delivered three times daily.

[3] = biological target: CCR2 (Homo sapiens, UniProt P41597); assay type: cell-based; settings: for inhibition of CCR2 (MCP-1) elicited chemotaxis: FIG. 4, 20 pM peptide 30 minutes prior, MCP-1 0.6 nM for 2 hours; for blocking CCL2 (MCP-1) chemotaxis: FIG. 3, tested at 10^−14 M
Chain of CCR2 (P41597 whole entry): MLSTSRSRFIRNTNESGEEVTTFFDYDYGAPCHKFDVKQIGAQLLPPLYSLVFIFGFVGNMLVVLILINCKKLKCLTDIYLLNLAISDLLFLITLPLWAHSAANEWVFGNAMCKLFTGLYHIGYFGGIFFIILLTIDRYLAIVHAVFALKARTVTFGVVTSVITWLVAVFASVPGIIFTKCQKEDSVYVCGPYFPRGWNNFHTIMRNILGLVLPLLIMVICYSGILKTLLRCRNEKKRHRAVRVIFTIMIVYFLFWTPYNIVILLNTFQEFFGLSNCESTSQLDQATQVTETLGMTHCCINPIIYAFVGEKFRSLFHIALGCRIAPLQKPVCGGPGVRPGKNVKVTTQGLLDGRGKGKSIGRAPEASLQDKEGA
Source text: Triplicate determinations were made and results are expressed as the mean plus or minus SEM. The experiment shown is a direct comparison among all RAPs. Statistical analysis was by unpaired t-test, with significance set at the p<0.01 (*) level for difference from CCL2 only chemotaxis.
Data are the average of 2 separate experiments, conducted with triplicate determinations. Data (chemotactic index) are presented as mean±SEM. The IC50 for inhibition of MCP-1 or MIP-1β was generated by a nonlinear inhibition curve fit in GraphPad Prism software, version 5.0. […] Data are presented as mean±SEM. *P<0.05, **P<0.01 vs RAP-103 untreated.
Triplicate determinations were performed and results are expressed as the mean plus or minus SEM. The experiment shown is a direct comparison among all RAPs. Statistical analysis was by unpaired t-test, with significance set at the p<0.01 (*) level for difference from CCL2 only chemotaxis.
A representative experiment is shown comprising triplicate determinations and is presented as relative fluorescence units, Mean±SEM.

[4] = system: β-Integrin-mediated adhesion to human fibronectin; experiment: MCP-1 elicited adhesion of human monocytes to human fibronectin; assay type: cell-based; settings: FIG. 5, 10 minutes pretreatment
Procedure: Human monocytes were treated with the indicated doses of all-D-(IDNYT) for 10 minutes prior to adherence to the β-integrin human fibronectin. Data is the average of two separate experiments, conducted with triplicate determinations. Data are presented as Mean±SEM of the normalized adherence response from two experiments. The IC50 for inhibition of MCP-1 stimulated adherence was generated using a nonlinear inhibition curve fit in GraphPad Prism Version 5.0.

[5] = system: response to bradykinin; settings: amounts up to 50,000 times the standard challenge of bradykinin; Stewart and Woolley 1965; cited from earlier work
[6] = biological target: TLR4 on human monocyte-derived immature dendritic cells (human, UniProt O00206 24-839); experiment: cell-based or functional assay
Chain of TLR4 on human monocyte-derived immature dendritic cells (O00206 24-839): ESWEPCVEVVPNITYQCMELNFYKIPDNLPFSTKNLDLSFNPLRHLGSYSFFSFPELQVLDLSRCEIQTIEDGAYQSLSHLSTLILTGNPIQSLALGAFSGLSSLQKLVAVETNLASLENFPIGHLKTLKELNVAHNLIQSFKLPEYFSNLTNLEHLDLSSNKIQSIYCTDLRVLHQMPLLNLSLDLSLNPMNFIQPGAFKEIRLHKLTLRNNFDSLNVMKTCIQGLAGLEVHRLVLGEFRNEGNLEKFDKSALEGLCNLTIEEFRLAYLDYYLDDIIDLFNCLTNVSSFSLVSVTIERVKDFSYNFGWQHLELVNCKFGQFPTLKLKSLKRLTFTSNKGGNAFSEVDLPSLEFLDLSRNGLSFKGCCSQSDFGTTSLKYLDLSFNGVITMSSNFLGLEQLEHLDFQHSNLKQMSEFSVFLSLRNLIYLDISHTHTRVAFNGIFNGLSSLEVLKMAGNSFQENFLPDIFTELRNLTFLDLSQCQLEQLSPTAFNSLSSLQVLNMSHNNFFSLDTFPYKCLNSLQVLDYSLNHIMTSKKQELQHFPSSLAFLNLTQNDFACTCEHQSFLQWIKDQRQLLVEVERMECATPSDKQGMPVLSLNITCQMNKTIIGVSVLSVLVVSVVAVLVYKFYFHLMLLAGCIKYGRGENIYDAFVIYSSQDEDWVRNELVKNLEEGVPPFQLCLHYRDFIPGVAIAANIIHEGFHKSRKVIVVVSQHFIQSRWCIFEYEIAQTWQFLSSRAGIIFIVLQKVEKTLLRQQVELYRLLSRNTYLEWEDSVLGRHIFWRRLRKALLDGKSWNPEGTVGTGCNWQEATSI

C[C@H](O)[C@@H](N)C(=O)N[C@@H](C(=O)N[C@H](CC(N)=O)C(=O)N[C@H](Cc1ccc(O)cc1)C(=O)N[C@@H](C(=O)O)[C@H](C)O)[C@H](C)O [RAP-103, all-D-TTNYT]
time of peak levels in plasma ([1]; 1 mg/kg, rat): 10 to 15 min | concentration in plasma ([1]; intravenous 1 mg/kg, 0.5 h, individual animals): 561 ng/mL | tolerability of dose administrations ([1]; intravenous and oral gavage, 1 mg/kg, rat): well tolerated | level at 0.083 h ([1]; male, Sprague Dawley, rat, plasma, iv, 1 mg/kg, intravenous 1 mg/kg, 0.083 h, individual animals): 3050 ng/mL | level at 0.167 h ([1]; male, Sprague Dawley, rat, plasma, iv, 1 mg/kg, intravenous 1 mg/kg, 0.167 h, individual animals): 2400 ng/mL | level at 0.25 h ([1]; male, Sprague Dawley, rat, plasma, iv, 1 mg/kg, intravenous 1 mg/kg, 0.25 h, individual animals): 2050 ng/mL | level at 0.5 h ([1]; male, Sprague Dawley, rat, plasma, iv, 1 mg/kg, intravenous 1 mg/kg, 0.5 h, individual animals): 558 ng/mL | level at 1 h ([1]; male, Sprague Dawley, rat, plasma, iv, 1 mg/kg, intravenous 1 mg/kg, 1 h, individual animals): 405 ng/mL

ASTTTNYY [Peptide T]
patient-reported change ([2]; after 2 weeks, continued to end of week 10): definite improvements | time to walk 10 meters ([2]; end of week 10, 65 seconds initially, one patient): 15 s

Asn-Thr-Arg-Tyr-Arg [NYRYR]
inhibition of CCR2 (MCP-1) elicited chemotaxis [3]: potently block

Asn-Thr-Ser-Tyr-Arg ([dN][dT][dS][dY][dR]) [NTSYR]
blocking CCL2 (MCP-1) chemotaxis [3]: retain potency

Asn-Thr-Ser-Tyr-Gly ([dN][dT][dS][dY]G) [NTSYG]
inhibition of CCR2 (MCP-1) elicited chemotaxis [3]: potently block

Glu-Thr-Trp-Tyr-Ser ([dE][dT][dW][dY][dS]) [ETWYS]
inhibition of CCR2 (MCP-1) elicited chemotaxis [3]: potently block

Ile-Asn-Asn-Tyr-Thr ([dI][dN][dN][dY][dT]) [IDNYT (SEQ ID NO:8)]
inhibition of CCR2 (MCP-1) elicited chemotaxis [3]: potently block

Ile-Asp-Asn-Tyr Thr ([dI][dD][dN][dY][dT]) [IDNYT (SEQ ID NO:6)]
inhibition of CCR2 (MCP-1) elicited chemotaxis [3]: potently block | blocking of MCP-1 elicited adhesion [4]: potently blocking

Ser-Ser-Thr-Tyr-Arg ([dS][dS][dT][dY][dR]) [SSTYR]
blocking CCL2 (MCP-1) chemotaxis [3]: retain potency

Thr-Thr-Ser-Tyr-Thr ([dT][dT][dS][dY][dT]) [TTSYT]
blocking CCL2 (MCP-1) chemotaxis [3]: retain potency

all-D-bradykinin
inhibition of the response to bradykinin or bradykinin-like effect [5]: neither any inhibition of the response to bradykinin, or any bradykinin-like effect

B1: all-D-TTNYT (RAP-103) (peptide)
peptide: [dT][dT][dN][dY][dT]
IC50 for inhibition of LPS (100 ng/mL) induced TNFα production in human monocyte-derived iDC (FIG. 6) [6]: ~0.1 pM

Source: patent US20140322250A1, “Peptides for the Treatment of Multiple Sclerosis and Related Diseases” (priority 2013, published 2014)
